Measured values reported in publication PMC6273578, “Design, Synthesis and Biological Evaluation of Benzohydrazide Derivatives Containing Dihydropyrazoles as Potential EGFR Kinase Inhibitors” (Molecules, 2016).

How the values were obtained:
MCF-7 cells = assay: MTT antiproliferative assay, MCF-7; type: cell-based, human; details: Homo sapiens, MCF7, read-out: In vitro antiproliferative activity IC50, MCF-7
Method: (§1) IC50 values of the test compounds against A549, MCF-7, Hela and HepG2 cells were obtained from State Key Laboratory of Pharmaceutical Biotechnology, Nanjing University, and were determined by a standard (MTT)-based colorimetric assay (Beyotime Inst. Biotech., Nanjing, China). Tumor cell lines were grown to mid-log phase and then diluted to […] making sure they were seeded in 96-well plates (Philas, Nanjing, China) at a density of 5 × 10^3–1 × 10^4 cells per well. The outer wells containing 1 × PBS solution of the plate are not used for the assay to avoid the possibility of edge effects. The plate was incubated at 37 °C in a 5% CO2 incubator in DMEM containing 10% fetal bovine serum (FBS, Gibco, Waltham, MA, USA) for 24 h. Then, we added a 100-μL series concentration of drug-containing medium into the wells to maintain the final concentration of drug as 100, 10, 1 and 0.1 μmol/L. After 12 h, cell survival was determined by the addition of a MTT (3-(4,5-dimethylthiazol-2-yl)-2,5-diphenyl trtrazolium bromide) solution (10 μL of 5 mg/mL MTT in 1 × PBS). We waited for 4 h proliferation, discarded the medium and quickly added 150 μL DMSO per well, shaking the plates well for 10 min to ensure complete dissolution. Optical absorbance was measured at 570 nm on a microplate reader (Bio-Rad, Hercules, CA, USA). Survival ratios are expressed in percentages with respect to untreated cells. The experiments were replicated at least three times to verify the methodology reproducibility when using the above-mentioned conditions.

HeLa cells = assay: MTT antiproliferative assay, HeLa; type: cell-based, human; details: Homo sapiens, read-out: In vitro antiproliferative activity IC50, HeLa
Method: as §1

[1] = target: epidermal growth factor receptor (EGFR) (Homo sapiens, UniProt P00533); assay: EGFR kinase inhibition, solid-phase ELISA assay
Method: All these newly synthesized compounds were evaluated for their inhibitory activities against EGFR kinases using a solid-phase ELISA assay.
EGFR tyrosine kinase activity was determined by an enzyme linked-immunosorbent assay (ELISA) in 96-well plates precoated in a 10 mL reaction volume including 4 mL diluted test compounds, 4 mL substrate and 2 mL ATP. […] The plates were then aspirated and washed twice with 200 mL 0.9% (w/v) NaCl, and incorporation of Pi was determined with an LX300 Epson Diagnostic microplate reader. […] The experiments were replicated at least three times to verify the methodology reproducibility when using the above-mentioned conditions.

[2] = Cytotoxicity test (MTT) on 293T cells; details: human, 293T human kidney epithelial cells
Method: The cytotoxic activity in vitro was measured by the colorimetric MTT assay. […] For the cytotoxicity assay, 20 μL of MTT (5 mg/mL) was added per well 4 h before the end of the incubation. After removing the supernatant, 200 μL DMSO was added to dissolve the formazan crystals. The absorbance at λ 570 nm was read on an LX300 Epson Diagnostic microplate reader, untreated cells were used as negative controls.

A549 cells = assay: MTT antiproliferative assay, A549; type: cell-based, human; details: Homo sapiens, read-out: In vitro antiproliferative activity IC50, A549
Method: as §1

HepG2 cells = assay: MTT antiproliferative assay, HepG2; type: cell-based, human; details: Homo sapiens, read-out: In vitro antiproliferative activity IC50, HepG2
Method: as §1

Chain of epidermal growth factor receptor (EGFR) (P00533 25-1210): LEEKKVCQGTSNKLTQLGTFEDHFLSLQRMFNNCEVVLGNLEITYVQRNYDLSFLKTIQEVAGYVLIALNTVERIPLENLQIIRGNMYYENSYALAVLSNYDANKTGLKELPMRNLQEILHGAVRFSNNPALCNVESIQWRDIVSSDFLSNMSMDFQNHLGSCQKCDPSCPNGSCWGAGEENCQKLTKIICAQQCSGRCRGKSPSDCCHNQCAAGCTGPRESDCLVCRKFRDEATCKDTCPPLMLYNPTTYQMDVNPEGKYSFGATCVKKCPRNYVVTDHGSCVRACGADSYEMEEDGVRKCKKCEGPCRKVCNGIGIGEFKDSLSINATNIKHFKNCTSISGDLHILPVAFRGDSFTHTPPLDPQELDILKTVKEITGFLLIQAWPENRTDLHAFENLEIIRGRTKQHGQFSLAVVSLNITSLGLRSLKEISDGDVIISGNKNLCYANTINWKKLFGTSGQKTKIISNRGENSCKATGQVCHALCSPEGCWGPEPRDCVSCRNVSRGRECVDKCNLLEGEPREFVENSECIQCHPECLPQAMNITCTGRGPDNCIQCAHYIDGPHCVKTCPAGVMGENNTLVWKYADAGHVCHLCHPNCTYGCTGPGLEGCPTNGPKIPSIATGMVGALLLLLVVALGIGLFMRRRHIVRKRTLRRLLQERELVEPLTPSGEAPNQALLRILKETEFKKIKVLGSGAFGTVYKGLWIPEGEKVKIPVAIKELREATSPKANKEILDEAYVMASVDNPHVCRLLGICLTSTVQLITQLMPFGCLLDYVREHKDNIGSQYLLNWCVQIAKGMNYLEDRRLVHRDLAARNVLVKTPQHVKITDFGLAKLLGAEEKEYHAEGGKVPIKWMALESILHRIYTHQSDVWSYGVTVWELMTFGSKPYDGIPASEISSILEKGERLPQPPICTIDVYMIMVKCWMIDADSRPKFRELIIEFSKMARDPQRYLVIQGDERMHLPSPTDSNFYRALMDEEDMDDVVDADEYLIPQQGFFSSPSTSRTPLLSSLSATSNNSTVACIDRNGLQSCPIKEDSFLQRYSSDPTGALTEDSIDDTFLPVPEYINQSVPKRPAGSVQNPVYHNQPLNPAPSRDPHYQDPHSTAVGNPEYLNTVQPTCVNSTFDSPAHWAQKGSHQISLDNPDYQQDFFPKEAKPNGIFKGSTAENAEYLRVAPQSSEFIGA

| IC50 (MCF-7 cells) | IC50 (HeLa cells) | IC50 [1] | IC50 (A549 cells) | melting point | IC50 (HepG2 cells) | SMILES | CC50 at 24 h [2] |
| --- | --- | --- | --- | --- | --- | --- | --- |
| 40.4 µM | 35.3 µM | 10 µM | 28.6 µM | 237 to 239 °C | 38.2 µM | COc1ccc(/C=N/NC(=O)c2ccc(N3N=C(c4ccc(Cl)cc4)CC3c3ccc4ccccc4c3)cc2)cc1 (stereo not drawn) [Compound H30, (E)-4-(3-(4-Chlorophenyl)-5-(naphthalen-2-yl)-4,5-dihydro-1H-pyrazol-1-yl)-N′-(4-methoxybenzylidene)-benzohydrazide] | 88.5 µM |
| 31.9 µM | 26.5 µM | 9.01 µM | 21.8 µM | 245 to 247 °C | 34.2 µM | COc1cccc(/C=N/NC(=O)c2ccc(N3N=C(c4ccc(Br)cc4)CC3c3ccc4ccccc4c3)cc2)c1 (stereo not drawn) [Compound H16, (E)-4-(3-(4-Bromophenyl)-5-(naphthalen-2-yl)-4,5-dihydro-1H-pyrazol-1-yl)-N′-(3-methoxybenzylidene)-benzohydrazide] | 81.9 µM |
| 42.5 µM | 37.4 µM | 10.3 µM | 30.1 µM | 236 to 238 °C | 40.2 µM | COc1cccc(/C=N/NC(=O)c2ccc(N3N=C(c4ccc(Cl)cc4)CC3c3ccc4ccccc4c3)cc2)c1 (stereo not drawn) [Compound H14, (E)-4-(3-(4-Chlorophenyl)-5-(naphthalen-2-yl)-4,5-dihydro-1H-pyrazol-1-yl)-N′-(3-methoxybenzylidene)-benzohydrazide] | 90.1 µM |
| 34.4 µM | 31.8 µM | 9.66 µM | 24.8 µM | 243 to 245 °C | 36.3 µM | COc1ccc(/C=N/NC(=O)c2ccc(N3N=C(c4ccc(Cl)c(Cl)c4)CC3c3ccc4ccccc4c3)cc2)cc1 (stereo not drawn) [Compound H31, (E)-4-(3-(3,4-Dichlorophenyl)-5-(naphthalen-2-yl)-4,5-dihydro-1H-pyrazol-1-yl)-N'-(4-methoxy-benzylidene)benzohydrazide] | 84.8 µM |
| 60.8 µM | 56.2 µM | 14.1 µM | 45.2 µM | 235 to 237 °C | 60.9 µM | COc1cccc(/C=N/NC(=O)c2ccc(N3N=C(c4ccc(F)cc4)CC3c3ccc4ccccc4c3)cc2)c1 (stereo not drawn) [Compound H11, (E)-4-(3-(4-Fluorophenyl)-5-(naphthalen-2-yl)-4,5-dihydro-1H-pyrazol-1-yl)-N′-(3-methoxybenzylidene)-benzohydrazide] | 86.5 µM |
| 50.9 µM | 43 µM | 11.2 µM | 33.2 µM | 241 to 243 °C | 41 µM | COc1ccc(/C=N/NC(=O)c2ccc(N3N=C(c4cccc(Cl)c4)CC3c3ccc4ccccc4c3)cc2)cc1 (stereo not drawn) [Compound H29, (E)-4-(3-(3-Chlorophenyl)-5-(naphthalen-2-yl)-4,5-dihydro-1H-pyrazol-1-yl)-N′-(4-methoxybenzylidene)-benzohydrazide] | 94.4 µM |
| 80.1 µM | 84.1 µM | 20 µM | 58.6 µM | 241 to 243 °C | 92.5 µM | COc1cccc(/C=N/NC(=O)c2ccc(N3N=C(c4cccc(F)c4)CC3c3ccc4ccccc4c3)cc2)c1 (stereo not drawn) [Compound H10, (E)-4-(3-(3-Fluorophenyl)-5-(naphthalen-2-yl)-4,5-dihydro-1H-pyrazol-1-yl)-N′-(3-methoxybenzylidene)-benzohydrazide] | 95.8 µM |
| 65.5 µM | 61.9 µM | 15.3 µM | 48.6 µM | 244 to 246 °C | 71.1 µM | COc1ccc(/C=N/NC(=O)c2ccc(N3N=C(c4ccccc4F)CC3c3ccc4ccccc4c3)cc2)cc1 (stereo not drawn) [Compound H25, (E)-4-(3-(2-Fluorophenyl)-5-(naphthalen-2-yl)-4,5-dihydro-1H-pyrazol-1-yl)-N′-(4-methoxybenzylidene)-benzohydrazide] | 85.6 µM |
| 56.1 µM | 47.7 µM | 12.3 µM | 39.4 µM | 238 to 240 °C | 48.1 µM | COc1ccc(/C=N/NC(=O)c2ccc(N3N=C(c4cc(F)cc(F)c4)CC3c3ccc4ccccc4c3)cc2)cc1 (stereo not drawn) [Compound H28, (E)-4-(3-(3,5-Difluorophenyl)-5-(naphthalen-2-yl)-4,5-dihydro-1H-pyrazol-1-yl)-N′-(4-methoxy-benzylidene)benzohydrazide] | 82.2 µM |

Further lines, the molecule ahead of its results:

| SMILES | IC50 (MCF-7 cells) | IC50 (HeLa cells) | IC50 [1] | IC50 (A549 cells) | melting point | IC50 (HepG2 cells) | CC50 at 24 h [2] |
| --- | --- | --- | --- | --- | --- | --- | --- |
| COc1cccc(/C=N/NC(=O)c2ccc(N3N=C(c4cc(F)cc(F)c4)CC3c3ccc4ccccc4c3)cc2)c1 (stereo not drawn) [Compound H12, (E)-4-(3-(3,5-Difluorophenyl)-5-(naphthalen-2-yl)-4,5-dihydro-1H-pyrazol-1-yl)-N′-(3-methoxybenzylidene) benzohydrazide] | 55.6 µM | 50.3 µM | 12.8 µM | 41.5 µM | 225 to 227 °C | 52.3 µM | 80.2 µM |
| COc1cccc(/C=N/NC(=O)c2ccc(N3N=C(c4cc(OC)c(OC)c(OC)c4)CC3c3ccc4ccccc4c3)cc2)c1 (stereo not drawn) [Compound H7, (E)-N′-(3-Methoxybenzylidene)-4-(5-(naphthalen-2-yl)-3-(3,4,5-trimethoxyphenyl)-4,5-dihydro-1H-pyrazol-1-yl)benzohydrazide] | 95.3 µM | > 100 µM | 26.9 µM | 78.3 µM | 230 to 232 °C | > 100 µM | 92.9 µM |
| COc1cccc(/C=N/NC(=O)c2ccc(N3N=C(c4ccc(Cl)c(Cl)c4)CC3c3ccc4ccccc4c3)cc2)c1 (stereo not drawn) [Compound H15, (E)-4-(3-(3,4-Dichlorophenyl)-5-(naphthalen-2-yl)-4,5-dihydro-1H-pyrazol-1-yl)-N′-(3-methoxy-benzylidene)benzohydrazide] | 35.2 µM | 33.6 µM | 9.87 µM | 26.6 µM | 234 to 236 °C | 38.9 µM | 88.2 µM |
| CCOc1ccc(C2=NN(c3ccc(C(=O)N/N=C/c4cccc(OC)c4)cc3)C(c3ccc4ccccc4c3)C2)cc1 (stereo not drawn) [Compound H8, (E)-4-(3-(4-Ethoxyphenyl)-5-(naphthalen-2-yl)-4,5-dihydro-1H-pyrazol-1-yl)-N′-(3-methoxybenzylidene)-benzohydrazide] | 15.9 µM | 17.1 µM | 7.2 µM | 10.7 µM | 233 to 235 °C | 19.8 µM | 79.7 µM |
| COc1ccc(/C=N/NC(=O)c2ccc(N3N=C(c4cc(OC)c(OC)c(OC)c4)CC3c3ccc4ccccc4c3)cc2)cc1 (stereo not drawn) [Compound H23, (E)-N′-(4-Methoxybenzylidene)-4-(5-(naphthalen-2-yl)-3-(3,4,5-trimethoxyphenyl)-4,5-dihydro-1H-pyrazol-1-yl)benzohydrazide] | 93.2 µM | 94.1 µM | 24.6 µM | 75.7 µM | 237 to 239 °C | 89.5 µM | 85.8 µM |
| C#Cc1cccc(Nc2ncnc3cc(OCCOC)c(OCCOC)cc23)c1 [Erlotinib, reference compound] | 0.12 µM | 0.17 µM |  | 0.2 µM |  | 0.1 µM |  |
